Earlier results on one compound are cited in patent publication US20110003837A1, “MODIFIED RELEASE FORMULATIONS OF HMG COA REDUCTASE INHIBITORS” (LUPIN LIMITED, priority 2008, published 2011).

For data set [1] the following is noted: in vivo.
The conditions of data set [2]: in words.
The conditions of data set [3]: 40 mg daily, clinical trials.
Data set [4] deals with T1, HMG-CoA reductase (Homo sapiens, UniProt P04035).
T1 sequence (P04035 1-888): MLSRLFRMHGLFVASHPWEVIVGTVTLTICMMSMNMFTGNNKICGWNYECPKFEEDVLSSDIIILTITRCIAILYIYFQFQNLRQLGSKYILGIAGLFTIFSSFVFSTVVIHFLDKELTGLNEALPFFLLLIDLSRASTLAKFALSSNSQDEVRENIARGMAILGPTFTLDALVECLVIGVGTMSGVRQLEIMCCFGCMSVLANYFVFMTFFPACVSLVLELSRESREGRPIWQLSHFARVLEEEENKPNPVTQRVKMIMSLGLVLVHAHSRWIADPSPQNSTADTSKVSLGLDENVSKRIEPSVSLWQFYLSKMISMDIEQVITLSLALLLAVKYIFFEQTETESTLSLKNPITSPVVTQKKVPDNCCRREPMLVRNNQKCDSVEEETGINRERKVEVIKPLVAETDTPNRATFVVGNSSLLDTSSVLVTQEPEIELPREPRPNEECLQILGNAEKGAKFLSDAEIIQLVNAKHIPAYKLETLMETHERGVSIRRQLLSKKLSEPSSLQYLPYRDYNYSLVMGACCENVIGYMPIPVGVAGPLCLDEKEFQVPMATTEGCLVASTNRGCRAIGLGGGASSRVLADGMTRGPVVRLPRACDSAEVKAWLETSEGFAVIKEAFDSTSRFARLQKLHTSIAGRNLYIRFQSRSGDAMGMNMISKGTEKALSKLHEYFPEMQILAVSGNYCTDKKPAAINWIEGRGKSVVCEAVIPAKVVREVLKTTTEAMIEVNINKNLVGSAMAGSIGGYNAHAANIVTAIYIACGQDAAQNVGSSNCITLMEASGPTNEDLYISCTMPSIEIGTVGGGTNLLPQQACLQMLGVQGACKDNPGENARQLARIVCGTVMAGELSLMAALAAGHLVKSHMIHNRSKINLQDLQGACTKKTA

For data set [5] the following is noted: U.S. Pharmacopeia (2002).

Where two headings read alike, the source gives them in different places.

For `CC(C)c1nc(N(C)S(C)(=O)=O)nc(-c2ccc(F)cc2)c1/C=C/[C@@H](O)C[C@@H](O)CC(=O)O` (single isomer, unassigned) [rosuvastatin], in data set [1], the “Absorbed dose extracted by the liver” value is on record as “up to 90%”, the “Clearance through biliary excretion” value is 90%, the “Elimination half-life (t½)” value was 20 h and the “Excreted in the urine” value is given as 10%. For the same compound, in data set [2], the “Stability in acidic environments like that found in the stomach” value is “stable in acidic environments”. Further, the LDL-C reduction result in data set [3] is “up to 63%”. In addition, in data set [4], the “Share of the inhibitory activity of rosuvastatin due to the parent compound” value is given as 90%. Moreover, the “Patients with drug levels greater than 50 ng/ml” value (40 mg) is 2%. Also, the “Patients with drug levels greater than 50 ng/ml” value (80 mg) is given as 33%. Moreover, the “Plasma level at which muscle and or renal toxicity developed” value (plasma) is reported as “more than 50 ng/ml”. The Solubility class result in data set [5] was “sparingly soluble”.
